# From US20170360743A1, “BIFLAVONE COMPOUND AND USES THEREOF FOR TREATING CANCERS AND PREPARING DRUGS” (FUJIAN MEDICAL UNIVERSITY, priority 2015, published 2017)
# Legend:
# A549 cells xenograft = experiment: In vivo anti-tumor activity, A549 nude mouse model; conditions: for Weights (g) After treatment: body weight after treatment; for Weights (g) Before treatment: body weight before treatment
# Description: The nude mice were fed in the SPF-system, six mice in a cage. The nude mice were provided with standard food and water, maintained in the light and dark cycling conditions (12/12 h), room temperature 25±2° C., humidity 50±10%. The water and beddings were steriled and changed every day. The mice were fed in the maintenance room for a week before the experiments.
# Accurately weighed a certain amount of injection grade doxorubicin powder, added saline to obtain a 0.4 mg/mL test solution. The test solution is prepared avoiding light and handy for use.
# Human non-small cell lung cancer cell line A549 was resuscitated. The ratio of FBS in the culture was increased from 6% to 10%, so as to make the cells proliferated rapidly. When the cell coverage in the culture flask reached 80% or so (i.e., logarithmic growth phase), the A549 cells were digested and suspended. Using autoclaved PBS to wash the cells twice to remove the residual culture medium. And then the cells were resuspended with PBS and adjusted the cells concentration to 1×10^7 cells/mL.
# After the mice accustomed to the environment, under steriled condition, using disposable syringe to transfer A549 cells (1×10^7/mL) and subcutaneously inoculated in the flank of nude mice. 0.2 ml of suspension of A549 cells was injected into each nude mice and the procedure was finished within 30 min. The rest of the cells were subjected to culture and observed for any contamination, so as to provide information on whether the construction of animal model was success.
# After the inoculation of cancer cells was success and the volume of xenograft tumors reached 50 to 100 mm^3, the animals were divided randomly into 5 groups (high dosage, middle dosage, low dosage, positive control, blank control) and each group comprised 6 mice.
# The animals were administered once per day. The injection volume was adjusted according to the weight measured. The animals were administered for 12 days. Positive control group was injected with 2 mg/kg Doxorubicin. The animals were administered once every 3 days, and 4 times in the 12-day period. Blank control group was injected with saline solution.
# During the administration period, the living and mental state of the mice were observed every day. Body weight and tumor size was measured and recorded. The tumor size was measured using Vernier caliper and tumor volumes were calculated using the formula: V (mm^3)=½×L (mm)×W^2 (mm^2) in which L is the length and W is the width of the solid tumor nodules.
# 24 hrs after the last administration, the nude mice were sacrificed and the tumor was removed for volume measurements. Tumor inhibition rate was calculated.
# Each mouse was weighted 24 hours after administration. In the end of the experiment, the mice were sacrifice by treating at the neck area. The tumor was removed for volume measurements and took photos.
# The experimental data were analyzed by SPSS 13.0 software Comparison between groups were carried out by one-way ANOVA or two-sample comparison of U-test. Results were provided in mean±SE, difference with P<0.05 was deemed significant.
# [1] = system: nasopharyngeal carcinoma cell line (CNE1); experiment: MTT inhibition of CNE1 cancer cell line; assay type: cell-based; conditions: Homo sapiens, CNE1, 72 hs
# Description: (§1) 1. Preparing test solutions: taking a certain amount of compounds 5, using dimethyl sulfoxide (DMSO) to dissolve the compound, and using cell growth medium for each corresponding cell line to dilute the solution to 5 concentrations of test solutions: 500, 250, 125, 62.5, 31.25 μg/mL. The positive control doxorubicin were diluted with cell growth medium for each corresponding cell line to 3 concentrations: 5, 2.5, 1.25 μM. Seven human cancer cell lines, including five adhesive cancer cell lines: human gastric cancer cell line (MKN-45), non-small cell lung cancer cell line (A549), nasopharyngeal carcinoma cell line (CNE1, CNE2), large cell lung cancer cell line (PC-9); and two suspensive cancer cell lines: human promyelocytic leukemia cell line (HL60), human chronic myelogenous leukemia cell line (K562). All seven human cancer cell lines are purchased from Shanghai Chinese Academy of Sciences Cell Bank and stored in School of Medicine of Fujian Medical University. The aforementioned seven cancer cell lines were recovered from the liquid nitrogen, and then cultured in 25 cm^2 flasks under the corresponding culture conditions of each cell lines (see Table 2). […] OD was measured with microplate reader under wavelength of 492 nm and then the inhibition rate was calculated. […]
# [2] = Solubility of Compound 5 when preparing the test solution; assay type: physicochemical
# Source text: Its water solution (or saline solution) was acidic. […] Suitable co-solvents were selected to enhance the solubility. Studied the solubility enhancing effects of Tween-80 (final concentration 0.02-2%, v/v), PEG-400 (final concentration <40%, v/v), 1, 2-propanediol (final concentration <40%, v/v), glycerol (final concentration <30%, v/v), and CMC-Na (final concentration 1-5%, w/v). […] Considering formulations comprising tween compounds may lead to hemolysis, PEG-400 was selected as the co-solvent.
# [3] = system: non-small cell lung cancer cell line (A549); experiment: MTT inhibition of A549 cancer cell line; assay type: cell-based; conditions: Homo sapiens, A549, 72 hs
# Description: as §1
# [4] = system: human promyelocytic leukemia cell line (HL60); experiment: MTT inhibition of HL60 cancer cell line; assay type: cell-based; conditions: HL-60, HL60, 72 hs
# Description: as §1
# [5] = system: human chronic myelogenous leukemia cell line (K562); experiment: MTT inhibition of K562 cancer cell line; assay type: cell-based; conditions: K562, 72 hs
# Description: as §1
# [6] = system: nasopharyngeal carcinoma cell line (CNE2); experiment: MTT inhibition of CNE2 cancer cell line; assay type: cell-based; conditions: Homo sapiens, CNE-2, CNE2, 72 hs
# Description: as §1
# [7] = system: human gastric cancer cell line (MKN-45); experiment: MTT inhibition of MKN-45 cancer cell line; assay type: cell-based; conditions: MKN-45, 72 hs
# Description: as §1
# [8] = system: large cell lung cancer cell line (PC-9); experiment: MTT inhibition of PC-9 cancer cell line; assay type: cell-based; conditions: Homo sapiens, PC-9, 72 hs
# Description: as §1
# [9] = High dosage 30 mg/kg tail vein once per day, 12 days
# [10] = Low dosage 5 mg/kg tail vein once per day, 12 days
# [11] = Middle dosage 15 mg/kg tail vein once per day, 12 days
# [12] = 2 mg/kg tail vein once every 3 days, 4 times in 12 days
structure (smiles),measurement,setting,value
"O=c1cc(-c2ccc(Oc3c(-c4ccc(O)cc4)oc4cc(O)cc(O)c4c3=O)cc2)oc2cc(O)cc(O)c12 [Compound 5, 3-(4-(5,7-dihydroxy-4-oxo-4H-benzopyran-2-yl)phenoxyl)-5,7-dihydroxy-2-(4-hydroxyphenyl)-4H-benzopyran-4-one]",toxicity in nude mice,"A549 cells xenograft; 5-30 mg/kg tail vein once per day, 12 days",low
same,Tumor Weight-inhibitions(%),A549 cells xenograft; [9],62.2±21.3%
same,Tumor weights,A549 cells xenograft; [9],0.193 ± 0.056 g
same,Weights (g) After treatment,A549 cells xenograft; [9],24.4 ± 1.6 g
same,Weights (g) Before treatment,A549 cells xenograft; [9],22.4 ± 1.2 g
same,Tumor Weight-inhibitions(%),A549 cells xenograft; [10],36.9±6.1%
same,Tumor weights,A549 cells xenograft; [10],0.305 ± 0.039 g
same,Weights (g) After treatment,A549 cells xenograft; [10],23.4 ± 0.7 g
same,Weights (g) Before treatment,A549 cells xenograft; [10],22.8 ± 0.8 g
same,Tumor Weight-inhibitions(%),A549 cells xenograft; [11],43.7±19.8%
same,Tumor weights,A549 cells xenograft; [11],0.287 ± 0.101 g
same,Weights (g) After treatment,A549 cells xenograft; [11],24.9 ± 1.0 g
same,Weights (g) Before treatment,A549 cells xenograft; [11],23.9 ± 1.5 g
same,IC50,[1],49.3 ± 2.8 µg/mL
same,solubility at injection acceptable pH,[2]; pH adjusted to 6.0-8.0,still quite low
same,solubility in water,[2]; water,poorly dissolved in water
same,IC50,[3],13.2 ± 0.91 µg/mL
same,IC50,[4],18.3 ± 3 µg/mL
same,IC50,[5],16.8 ± 2.8 µg/mL
same,IC50,[6],13.3 ± 2.6 µg/mL
same,IC50,[7],33.2 ± 3.1 µg/mL
same,IC50,[8],21.8 ± 1.3 µg/mL
"COc1cccc2c1C(=O)c1c(O)c3c(c(O)c1C2=O)C[C@@](O)(C(=O)CO)C[C@@H]3O[C@H]1C[C@H](N)[C@H](O)[C@H](C)O1 [Doxorubicin, reference compound]",Tumor Weight-inhibitions(%),A549 cells xenograft; [12],56.8±5.6%
same,Tumor weights,A549 cells xenograft; [12],0.220 ± 0.037 g
same,Weights (g) After treatment,A549 cells xenograft; [12],23.6 ± 1.1 g
same,Weights (g) Before treatment,A549 cells xenograft; [12],22.7 ± 1.9 g
